Laboratory results taken from patent US20260234161A1, “RIFABUTIN ANALOGS FOR THE TREATMENT OF BACTERIAL DISEASES” (BIOVERSYS AG, priority 2023, published 2026).
≈ marks a conversion by molar mass, not a printed value.

Legend:
Assay type in all cases: cell-based
[1] = test system: S. aureus (UAMS-1625 strain); experiment: MIC by broth microdilution, S. aureus; conditions: Staphylococcus aureus, 20 h, read-out: MIC S. aureus
Procedure, shortened: (§1)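 CLSI broth microdilution in cation-adjusted Mueller Hinton broth, 5×10^5 CFU/mL inoculum; ADC (5%) added for M. avium and M. xenopi (M. xenopi inoculum from 7H9+ADC liquid culture). Two-fold series 16–0.016 μg/mL (M. abscessus, M. avium), 1–6×10^−5 μg/mL (M. xenopi); S. aureus 35° C 20 h, M. abscessus 30° C 4 days, others 37° C ≥7 days; MIC = lowest concentration without visible growth.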

[2] = test system: A. baumannii (HUMC1 strain); experiment: MIC by broth microdilution, A. baumannii (RPMI + 10% FCS); conditions: Acinetobacter baumannii; HUMC1 strain; RPMI medium + 10% FCS; 35° C., 20 hours; read-out: MIC A. baumannii
[3] = test system: M. abscessus (ATCC 19977); experiment: MIC by broth microdilution, M. abscessus in Middlebrook 7H9 broth + ADC; conditions: Mycobacteroides abscessus, ATCC19977, 96 h; ATCC 19977; Middlebrook 7H9 broth + ADC growth supplement (10%); 30° C., 4 days; read-out: MIC M. abscessus 7H9
Method: (§2) MIC values were determined by broth microdilution method according to the CLSI guidelines with the following exceptions: MIC against A. baumannii was performed in RPMI medium supplemented with 10% FCS and MIC against M. abscessus was performed in Middlebrook 7H9 broth supplemented with Middlebrook ADC growth supplement (10%; see column “M. abscessus 7H9”). MIC forM abscessus was determined a second time in standard cation adjusted Mueller Hinton broth without growth supplement (see colum “M. abscessus MH”). All other MIC were performed in standard cation adjusted Mueller Hinton broth, supplemented with Middlebrook ADC growth supplement (5%) for the slow growing mycobacteria (M. xenopi, M. kansasii and M. avium).
(§3) The following procedure applies to all species tested, except forM xenopi. From a fresh culture plate (from overnight to several days depending on the bacteria), cells were resuspended in 0.9% (w/v) saline solution and bacterial inoculum was prepared in the respective testing medium with 5×10^5 CFU/mL. For M. xenopi, the inoculum was prepared from a fresh liquid culture (7H9+ADC). The appropriate volumes of a 10 mg/mL compound solution were directly dispensed in the 96-well assay plate using a digital dispenser to create two-fold dilution series from 32 to 0.002 μg/mL final concentration for A. baumannii and S. aureus; from 16 to 0.016 μg/mL for M. abscessus and M. avium; and from 1 to 6×10^−5 μg/mL for M. kansasii and M. xenopi. 100 μL of bacterial suspension was finally added to the compounds. Plates were covered and incubated without shaking at 35° C. for 20 hours for A. baumanii and S. aureus; at 30° C. for 4 days for M. abscessus; and at 37° C. for 7 days (at least) for M. kansasii (covered with aluminum foil to avoid light exposure), M. avium and M. xenopi. Every experiment contained an antibiotic as quality control. MIC was determined visually as the lowest concentration of a compound that prevents visible growth of the bacteria.
(§4) The in vitro activity of compounds described herein was determined against S. aureus (UAMS-1625 strain), A. baumannii (HUMC1 strain), M. abscessus (ATCC 19977), M. kansasii (ATCC 12478), M. avium (ATCC 25291), and M. xenopi (ATCC 19250).

[4] = test system: M. abscessus (ATCC 19977); experiment: MIC by broth microdilution, M. abscessus in cation adjusted Mueller Hinton broth; conditions: Mycobacteroides abscessus, ATCC19977, 96 h; ATCC 19977; cation adjusted Mueller Hinton broth without growth supplement; 30° C., 4 days; read-out: MIC M. abscessus MH
Procedure, shortened: as §1

[5] = test system: M. kansasii (ATCC 12478); experiment: MIC by broth microdilution, M. kansasii; conditions: Mycobacterium kansasii, ATCC12478, 168 h, cation adjusted Mueller Hinton broth + ADC (5%), 37° C., 7 days (at least)
Method: as §2, §3, §4

[6] = test system: M. xenopi (ATCC 19250); experiment: MIC by broth microdilution, M. xenopi; conditions: Mycobacterium xenopi, ATCC19250, 168 h, cation adjusted Mueller Hinton broth + ADC (5%), 37° C., 7 days (at least)
Method: as §2, §3, §4

[7] = test system: M. avium (ATCC 25291); experiment: MIC by broth microdilution, M. avium; conditions: Mycobacterium avium, ATCC25291, 168 h, cation adjusted Mueller Hinton broth + ADC (5%), 37° C., 7 days (at least)
Method: as §2, §3, §4

SMILES: CO[C@H]1/C=C/O[C@@]2(C)Oc3c(C)c(O)c4c(c3C2=O)C2=NC3(CCN(CC(C)C)CC3)NC2=C(NC(=O)/C(C)=C\C=C\[C@H](C)[C@H](O)[C@@H](C)[C@@H](O)[C@@H](C)[C@H](OC(=O)N2CCC(c3ccccc3)CC2)[C@@H]1C)C4=O [Compound 1]
- MIC [1]: 0.5 mg/L (≈ 0.504 µM)
- MIC [2]: 0.25 mg/L
- MIC [3]: 0.125 mg/L
- MIC [4]: 0.5 mg/L (≈ 0.504 µM)
- MIC [5]: 0.004 mg/L
- MIC [6]: 0.03 mg/L
- MIC [7]: 0.125 mg/L

SMILES: CO[C@H]1/C=C/O[C@@]2(C)Oc3c(C)c(O)c4c(c3C2=O)C2=NC3(CCN(CC(C)C)CC3)NC2=C(NC(=O)/C(C)=C\C=C\[C@H](C)[C@H](O)[C@@H](C)[C@@H](O)[C@@H](C)[C@H](OC(=O)N2CCC(c3ccncc3)CC2)[C@@H]1C)C4=O [Compound 2]
- MIC [1]: 0.125 mg/L (≈ 0.126 µM)
- MIC [2]: 0.016 mg/L
- MIC [3]: 0.125 mg/L
- MIC [4]: 0.25 mg/L (≈ 0.252 µM)
- MIC [5]: 0.0005 mg/L
- MIC [6]: 0.002 mg/L
- MIC [7]: 0.06 mg/L

SMILES: CO[C@H]1/C=C/O[C@@]2(C)Oc3c(C)c(O)c4c(c3C2=O)C2=NC3(CCN(CC(C)C)CC3)NC2=C(NC(=O)/C(C)=C\C=C\[C@H](C)[C@H](O)[C@@H](C)[C@@H](O)[C@@H](C)[C@H](OC(=O)N2CCC(N(C)c3ccccc3)CC2)[C@@H]1C)C4=O [Compound 4]
- MIC [1]: 0.5 mg/L (≈ 0.49 µM)
- MIC [2]: 0.125 mg/L
- MIC [3]: 0.25 mg/L
- MIC [4]: 1 mg/L (≈ 0.979 µM)
- MIC [5]: 0.002 mg/L
- MIC [6]: 0.016 mg/L
- MIC [7]: 0.25 mg/L

SMILES: CO[C@H]1/C=C/O[C@@]2(C)Oc3c(C)c(O)c4c(c3C2=O)C2=NC3(CCN(CC(C)C)CC3)NC2=C(NC(=O)/C(C)=C\C=C\[C@H](C)[C@H](O)[C@@H](C)[C@@H](O)[C@@H](C)[C@H](OC(=O)N2CCN(c3ccccc3)CC2)[C@@H]1C)C4=O [Compound 7]
- MIC [1]: 0.5 mg/L (≈ 0.503 µM)
- MIC [2]: 0.125 mg/L
- MIC [3]: 0.125 mg/L
- MIC [4]: 0.5 mg/L (≈ 0.503 µM)
- MIC [5]: 0.001 mg/L
- MIC [6]: 0.008 mg/L
- MIC [7]: 0.25 mg/L

SMILES: CO[C@H]1/C=C/O[C@@]2(C)Oc3c(C)c(O)c4c(c3C2=O)C2=NC3(CCN(CC(C)C)CC3)NC2=C(NC(=O)/C(C)=C\C=C\[C@H](C)[C@H](O)[C@@H](C)[C@@H](O)[C@@H](C)[C@H](OC(=O)N2CCN(c3ccccn3)CC2)[C@@H]1C)C4=O [Compound 8]
- MIC [1]: 0.25 mg/L (≈ 0.251 µM)
- MIC [2]: 0.25 mg/L
- MIC [3]: 0.125 mg/L
- MIC [4]: 0.5 mg/L (≈ 0.503 µM)
- MIC [5]: 0.0005 mg/L
- MIC [6]: 0.008 mg/L
- MIC [7]: 0.25 mg/L

SMILES: CO[C@H]1/C=C/O[C@@]2(C)Oc3c(C)c(O)c4c(c3C2=O)C2=NC3(CCN(CC(C)C)CC3)NC2=C(NC(=O)/C(C)=C\C=C\[C@H](C)[C@H](O)[C@@H](C)[C@@H](O)[C@@H](C)[C@H](OC(=O)N2CCN(CC3CCCCC3)CC2)[C@@H]1C)C4=O [Compound 9]
- MIC [1]: 0.5 mg/L (≈ 0.493 µM)
- MIC [2]: 0.5 mg/L
- MIC [3]: 0.06 mg/L
- MIC [4]: 0.125 mg/L (≈ 0.123 µM)
- MIC [5]: 0.0002 mg/L
- MIC [6]: 0.016 mg/L
- MIC [7]: 0.125 mg/L

SMILES: CO[C@H]1/C=C/O[C@@]2(C)Oc3c(C)c(O)c4c(c3C2=O)C2=NC3(CCN(CC(C)C)CC3)NC2=C(NC(=O)/C(C)=C\C=C\[C@H](C)[C@H](O)[C@@H](C)[C@@H](O)[C@@H](C)[C@H](OC(=O)N2CCN(C3CCCCC3)CC2)[C@@H]1C)C4=O [Compound 10]
- MIC [1]: 0.25 mg/L (≈ 0.25 µM)
- MIC [2]: 0.06 mg/L
- MIC [3]: 0.06 mg/L
- MIC [4]: 0.06 mg/L (≈ 0.06 µM)
- MIC [5]: 0.0002 mg/L
- MIC [6]: 0.002 mg/L
- MIC [7]: 0.06 mg/L

SMILES: CO[C@H]1/C=C/O[C@@]2(C)Oc3c(C)c(O)c4c(c3C2=O)C2=NC3(CCN(CC(C)C)CC3)NC2=C(NC(=O)/C(C)=C\C=C\[C@H](C)[C@H](O)[C@@H](C)[C@@H](O)[C@@H](C)[C@H](OC(=O)NC2CCN(Cc3ccccc3)CC2)[C@@H]1C)C4=O [Compound 14]
- MIC [1]: 0.125 mg/L (≈ 0.122 µM)
- MIC [2]: 0.004 mg/L
- MIC [3]: 0.25 mg/L
- MIC [4]: 0.25 mg/L (≈ 0.245 µM)
- MIC [5]: 0.0005 mg/L
- MIC [6]: 0.008 mg/L
- MIC [7]: 0.25 mg/L

SMILES: CO[C@H]1/C=C/O[C@@]2(C)Oc3c(C)c(O)c4c(c3C2=O)C2=NC3(CCN(CC(C)C)CC3)NC2=C(NC(=O)/C(C)=C\C=C\[C@H](C)[C@H](O)[C@@H](C)[C@@H](O)[C@@H](C)[C@H](OC(=O)N2CCC(NC(C)C)CC2)[C@@H]1C)C4=O [Compound 63]
- MIC [1]: 0.06 mg/L (≈ 0.0617 µM)
- MIC [2]: ≤ 0.016 mg/L
- MIC [4]: 2 mg/L (≈ 2.06 µM)
- MIC [5]: 0.125 mg/L
- MIC [6]: 0.25 mg/L
- MIC [7]: 0.5 mg/L

SMILES: CO[C@H]1/C=C/O[C@@]2(C)Oc3c(C)c(O)c4c(c3C2=O)C2=NC3(CCN(CC(C)C)CC3)NC2=C(NC(=O)/C(C)=C\C=C\[C@H](C)[C@H](O)[C@@H](C)[C@@H](O)[C@@H](C)[C@H](OC(=O)N2C[C@H]3CN(CC5CCCCC5)C[C@H]3C2)[C@@H]1C)C4=O [Compound 67]
- MIC [1]: 1 mg/L (≈ 0.962 µM)
- MIC [2]: 0.06 mg/L
- MIC [4]: 0.125 mg/L (≈ 0.12 µM)
- MIC [5]: 0.003 mg/L
- MIC [6]: 0.004 mg/L
- MIC [7]: 0.016 mg/L

SMILES: CO[C@H]1/C=C/O[C@@]2(C)Oc3c(C)c(O)c4c(c3C2=O)C2=NC3(CCN(CC(C)C)CC3)NC2=C(NC(=O)/C(C)=C\C=C\[C@H](C)[C@H](O)[C@@H](C)[C@@H](O)[C@@H](C)[C@H](OC(=O)N2CCC3(CCN(CC5CCCCC5)CC3)CC2)[C@@H]1C)C4=O [Compound 72]
- MIC [1]: 0.25 mg/L (≈ 0.231 µM)
- MIC [2]: 0.06 mg/L
- MIC [4]: 0.25 mg/L (≈ 0.231 µM)
- MIC [5]: 0.0004 mg/L
- MIC [6]: 0.008 mg/L
- MIC [7]: 0.03 mg/L

SMILES: CO[C@H]1/C=C/O[C@@]2(C)Oc3c(C)c(O)c4c(c3C2=O)C2=NC3(CCN(CC(C)C)CC3)NC2=C(NC(=O)/C(C)=C\C=C\[C@H](C)[C@H](O)[C@@H](C)[C@@H](O)[C@@H](C)[C@H](OC(=O)NC2CCN(C3CCCCC3)CC2)[C@@H]1C)C4=O [Compound 77]
- MIC [1]: 0.06 mg/L (≈ 0.0592 µM)
- MIC [2]: ≤ 0.016 mg/L
- MIC [4]: 1 mg/L (≈ 0.987 µM)
- MIC [5]: 0.03 mg/L
- MIC [6]: 0.06 mg/L
- MIC [7]: 0.25 mg/L
